Source: patent US9475798B2, “Azetidine estrogen receptor modulators and uses thereof” (Genentech, Inc., priority 2013, dated 2016)

Legend:
[1] = tested on: tamoxifen resistant MCF-7 tumors; assay: Breast Cancer Model; Xenograft Assay (MCF-7 Derivative); assay type: in vivo; conditions: female nu/nu mice
Description: Female nu/nu mice (with supplemental 17-β Estradiol pellets; 0.72 mg; 60 day slow release) bearing MCF-7 tumors (mean tumor volume 200 mm^3) were treated with Tamoxifen (citrate) by oral gavage. Tumor volume (length×width^2/2) and body weight were monitored twice weekly. Following a significant anti-tumor response in which tumor volume remained static, evident tumor growth was first observed at approximately 100 days of treatment. At 120 days of treatment, tamoxifen dose was increased. Rapidly growing tumors were deemed tamoxifen resistant and selected for in vivo passage into new host animals. Tumor Fragments (˜100 mm^3/animal) from the tamoxifen resistant tumors were subcutaneously implanted into the right flank of female nu/nu mice (with 17-β Estradiol pellets (0.72 mg; 60 day slow release)). Passaged tumors were maintained under constant Tamoxifen selection, and Tumor volume (length×width^2/2) was monitored weekly. When tumor volume reached ˜150-250 mm^3, animals were randomized into treatment groups (mean tumor volume 200 mm^3) and tamoxifen treatment was terminated (except for a tamoxifen control arm). Animals were treated with Vehicle or Compound daily for 4 weeks. Tumor volume and body weight were monitored twice weekly for the duration of the study. At the conclusion of the treatment period; plasma and tumor samples were taken for pharmacokinetic and pharmacodynamic analyses, respectively.

MCF-7 cells = assay: Breast Cancer Cell Viability Assay (MCF7, CellTiter-Glo); conditions: for MCF7 Viability Assay: % Viability relative to Fulvestrant: 5 days, 100-{100*[(100-% viability of Example)/(100-% viability of Fulvestrant)]}; for IC50: read-out: MCF7 Viability Assay IC50, 5 days' compound exposure;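 on all read-outs here: CellTiter-Glo luminescence read-out, background from cell-free medium subtracted, viability expressed against untreated cells, ten-point 1:5 compound dilution series spanning 10 to 0.000005 µM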

Structure (SMILES) | Number of Tumors Smaller at t = 27 days than at Start of study (t = 0 days) ([1]; 10mpk oral dose each day) | Number of Tumors Smaller at t = 27 days than at Start of study (t = 0 days) ([1]; 30mpk oral dose each day) | Number of Tumors Smaller at t = 27 days than at Start of study (t = 0 days) ([1]; 100mpk oral dose each day) | MCF7 Viability Assay: % Viability relative to Fulvestrant (MCF-7 cells) | IC50 (MCF-7 cells)
CC1=C(c2ccc(F)cc2)[C@H](c2ccc(OCCN3CC(CF)C3)cc2)Oc2ccc(O)cc21 (single isomer, unassigned) [Example 3] | 2/8 | 3/8 | 5/8 | 8% | 0.17 nM
CC1=C(c2cccc(O)c2)[C@H](c2ccc(OC[C@H](C)N3CC[C@@H](C)C3)cc2)Oc2ccc(O)cc21 [(S)-3-(3-Hydroxyphenyl)-4-methyl-2-(4-((S)-2-((R)-3-methylpyrrolidin-1-yl)propoxy)phenyl)-2H-chromen-6-ol, reference compound] | 0/8 | 1/8 | 1/8 | 8% | 0.13 nM
